Each structure is given as a SMILES string.

The term Inhibition denotes the percentage by which the read-out fell short of the control.

The target in the first assay is T1, human renal renin (Homo sapiens, UniProt P00797).
T1 construct: human renal renin, free from acid proteolytic activity; from tissue; host or cells: human kidney (from the word 'renal')
T1 sequence (P00797 67-406): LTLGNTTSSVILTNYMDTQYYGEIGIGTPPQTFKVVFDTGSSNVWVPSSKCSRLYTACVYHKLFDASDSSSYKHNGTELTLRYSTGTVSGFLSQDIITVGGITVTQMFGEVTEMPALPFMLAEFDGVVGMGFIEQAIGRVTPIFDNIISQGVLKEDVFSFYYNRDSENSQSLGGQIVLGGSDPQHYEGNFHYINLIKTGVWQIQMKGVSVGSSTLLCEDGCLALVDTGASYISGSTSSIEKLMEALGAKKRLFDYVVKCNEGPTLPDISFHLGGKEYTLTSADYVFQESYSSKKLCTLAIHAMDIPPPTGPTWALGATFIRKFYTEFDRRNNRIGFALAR
Description: In vitro inhibition of human renal renin (angiotensin I formed, measured by radioimmunoassay). The settings on record: at 10^-5 M compound; human renin substrate (angiotensinogen), 37° C., pH 6.0. The format is biochemical. As to the method: At the end of the incubation, the amount of angiotensin I formed is measured by radioimmunoassay and the present inhibition of renin is calculated.
`CC(C)CCC(O)C(CC(C)C)NC(=O)C(Cc1cnc[nH]1)NC(=O)C(Cc1ccccc1)NC(=O)OC(C)(C)C` (stereo not drawn) [Example 3, Boc-Phe-His amide of 4-amino-2,8-dimethyl-5-hydroxynonane] came in with an Inhibition of 89%.
On the same count and under the same terms, under `CC(C)CCC(O)C(CC(C)C)NC(=O)C(C)NC(=O)C(Cc1ccccc1)NC(=O)OC(C)(C)C` (stereo not drawn) [Example 2C, Boc-Phe-Ala amide of 4-amino-2,8-dimethyl-5-hydroxynonane] stands 85%; under `C=CC(C)(C)C(O)C(CC(C)C)NC(=O)C(C)NC(=O)C(Cc1ccccc1)NC(=O)OC(C)(C)C` (stereo not drawn) [Example 5C, Boc-Phe-Ala amide of 5-amino-4-hyroxy-3,3,7-trimethyl-1-octene], 7%; under `C=CCC(O)C(CC(C)C)NC(=O)C(C)NC(=O)C(Cc1ccccc1)NC(=O)OC(C)(C)C` (stereo not drawn) [Example 4C, Boc-Phe-Ala amide of 5-amino-4-hydroxy-7-methyl-1-octene], 48%.
`CC(C)CC(NC(=O)C(C)NC(=O)C(Cc1ccccc1)NC(=O)OC(C)(C)C)C(O)CCc1ccccc1` (stereo not drawn) [Example 1C, Boc-Phe-Ala amide of 4-amino-3-hydroxy-6-methyl-1-phenylheptane] had an Inhibition of 35%.

Still in this assay, the particulars now being: at 10^-8 M compound; human renin substrate (angiotensinogen), 37° C., pH 6.0.
On to `CC(C)CCC(O)C(CC1CCCCC1)NC(=O)C(Cc1cnc[nH]1)NC(=O)C(Cc1ccccc1)NC(=O)OC(C)(C)C` (stereo not drawn) [Example 6C, Boc-Phe-His Amide of 2-Amino-1-cyclohexyl-3-hydroxy-6-methylheptane], for which the Inhibition is 47%.

The record behind these values is patent US4652551A, “Renin inhibiting compounds” (Abbott Laboratories, priority 1985, dated 1987).
